From US11572399B2, “Long-acting GIP peptide analogues” (University of Copenhagen, priority 2017, dated 2023)
Peptide text beside a SMILES is read from it. * marks the point of attachment. Palmitoyl = CCCCCCCCCCCCCCCC(=O)*; Lauroyl = CCCCCCCCCCCC(=O)*

Target: T1, human GIP receptor (Homo sapiens, UniProt P48546)
T1 construct: host or cells: COS-7, transient transfection (calcium phosphate), cDNA in pCMV-Script
T1 sequence (P48546 22-466): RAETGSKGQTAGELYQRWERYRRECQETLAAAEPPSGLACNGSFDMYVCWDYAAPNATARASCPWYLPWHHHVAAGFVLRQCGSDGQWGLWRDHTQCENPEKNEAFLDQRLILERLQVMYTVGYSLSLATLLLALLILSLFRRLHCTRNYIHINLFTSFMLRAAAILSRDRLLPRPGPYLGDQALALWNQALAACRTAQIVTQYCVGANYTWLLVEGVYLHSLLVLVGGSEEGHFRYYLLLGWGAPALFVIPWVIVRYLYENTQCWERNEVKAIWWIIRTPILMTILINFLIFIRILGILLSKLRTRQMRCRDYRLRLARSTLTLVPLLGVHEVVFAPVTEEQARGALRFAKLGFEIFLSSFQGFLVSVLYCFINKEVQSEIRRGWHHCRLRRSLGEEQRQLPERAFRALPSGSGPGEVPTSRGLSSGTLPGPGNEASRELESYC
Experiment: cAMP accumulation assay, agonism (ligand alone)
Format: cell-based
Conditions: COS-7 cells, Table 1; for Emax: COS-7, intrinsic cAMP activity; for EC50: read-out: cAMP agonism nM (EC50)
Protocol: COS-7 cells were cultured at 10% CO2 and 37° C. in Dulbecco's modified Eagle's medium 1885 supplemented with 10% fetal bovine serum, 2 mM glutamine, 180 units/ml penicillin, and 45 µg/ml streptomycin. Transient transfection of the COS-7 cells for cAMP accumulation and competition binding was performed using the calcium phosphate precipitation method with the addition of chloroquine^46-47.
Transient transfected COS-7 cells expressing the human GIP receptor were seeded in white 96-well plates with a density of 3.5*10^4/well. The day after, the cells were washed twice with Hepes buffered saline (HBS) buffer and incubated with HBS and 1 mM 3-isobutyl-1-methylxanthine (IBMX) for 30 min at 37° C. To test for agonistic properties, ligands were added and incubated for 30 min at 37° C. In order to test for antagonistic properties, the cells were preincubated with the antagonists for 10 min prior to the addition of the agonist and subsequent incubated for 20 additional min. The HitHunter™ cAMP XS assay (DiscoveRx) was carried out according to the manufacturer's instructions.
IC50, EC50, and Ki values were determined by nonlinear regression. These were carried out with the GraphPad Prism 6.0 software (GraphPad, San Diego, Calif., USA) and Microsoft Excel™. Ki values were based on the formula for one class of binding sites in homologous competition binding studies and the Cheng Prussoffs formula, respectively (DeBlasi et al., 1989). To determine the HSA binding potential, the fold change in affinity (as determined by IC50) was calculated as IC50 (plus HSA)/IC50 (minus HSA).

CCCCCCCCCCCCCCCC(=O)NCCCC[C@H](NC(=O)[C@H](CCC(N)=O)NC(=O)[C@H](C)NC(=O)[C@H](CC(C)C)NC(=O)[C@H](CC(C)C)NC(=O)[C@H](Cc1c[nH]c2ccccc12)NC(=O)[C@H](CC(N)=O)NC(=O)[C@@H](NC(=O)[C@H](Cc1ccccc1)NC(=O)[C@H](CC(=O)O)NC(=O)[C@H](CCC(N)=O)NC(=O)[C@H](CCC(N)=O)NC(=O)[C@H](Cc1c[nH]cn1)NC(=O)[C@@H](NC(=O)[C@H](CCCCN)NC(=O)[C@H](CC(=O)O)NC(=O)[C@H](CCSC)NC(=O)[C@H](C)NC(=O)[C@@H](NC(=O)[C@H](CO)NC(=O)[C@H](Cc1ccc(O)cc1)NC(=O)[C@H](CC(=O)O)NC(=O)[C@H](CO)NC(=O)[C@@H](NC(=O)[C@H](Cc1ccccc1)NC(=O)[C@@H](NC(=O)CNC(=O)[C@@H](N)CCC(=O)O)[C@@H](C)O)[C@@H](C)CC)[C@@H](C)CC)[C@@H](C)CC)C(C)C)C(N)=O [AT106, [hGIP(3-30)NH2—C16/30]]
Emax: 64%

CCCCCCCCCCCCCC(=O)NCCCC[C@H](NC(=O)[C@H](CCC(N)=O)NC(=O)[C@H](C)NC(=O)[C@H](CC(C)C)NC(=O)[C@H](CC(C)C)NC(=O)[C@H](Cc1c[nH]c2ccccc12)NC(=O)[C@H](CC(N)=O)NC(=O)[C@@H](NC(=O)[C@H](Cc1ccccc1)NC(=O)[C@H](CC(=O)O)NC(=O)[C@H](CCC(N)=O)NC(=O)[C@H](CCC(N)=O)NC(=O)[C@H](Cc1c[nH]cn1)NC(=O)[C@@H](NC(=O)[C@H](CCCCN)NC(=O)[C@H](CC(=O)O)NC(=O)[C@H](CCSC)NC(=O)[C@H](C)NC(=O)[C@@H](NC(=O)[C@H](CO)NC(=O)[C@H](Cc1ccc(O)cc1)NC(=O)[C@H](CC(=O)O)NC(=O)[C@H](CO)NC(=O)[C@@H](NC(=O)[C@H](Cc1ccccc1)NC(=O)[C@@H](NC(=O)CNC(=O)[C@@H](N)CCC(=O)O)[C@@H](C)O)[C@@H](C)CC)[C@@H](C)CC)[C@@H](C)CC)C(C)C)C(N)=O [AT112, [hGIP(3-30)NH2—C14/30]]
Emax: 29%

CCCCCCCCCCCCCCCCCC(=O)NCCCC[C@H](NC(=O)[C@H](CCC(N)=O)NC(=O)[C@H](C)NC(=O)[C@H](CC(C)C)NC(=O)[C@H](CC(C)C)NC(=O)[C@H](Cc1c[nH]c2ccccc12)NC(=O)[C@H](CC(N)=O)NC(=O)[C@@H](NC(=O)[C@H](Cc1ccccc1)NC(=O)[C@H](CC(=O)O)NC(=O)[C@H](CCC(N)=O)NC(=O)[C@H](CCC(N)=O)NC(=O)[C@H](Cc1c[nH]cn1)NC(=O)[C@@H](NC(=O)[C@H](CCCCN)NC(=O)[C@H](CC(=O)O)NC(=O)[C@H](CCSC)NC(=O)[C@H](C)NC(=O)[C@@H](NC(=O)[C@H](CO)NC(=O)[C@H](Cc1ccc(O)cc1)NC(=O)[C@H](CC(=O)O)NC(=O)[C@H](CO)NC(=O)[C@@H](NC(=O)[C@H](Cc1ccccc1)NC(=O)[C@@H](NC(=O)CNC(=O)[C@@H](N)CCC(=O)O)[C@@H](C)O)[C@@H](C)CC)[C@@H](C)CC)[C@@H](C)CC)C(C)C)C(N)=O [AT115, [hGIP(3-30)NH2—C18/30]]
EC50: 134 nM

CCCCCCCCCCCC(=O)NCCCC[C@H](NC(=O)[C@H](CCC(N)=O)NC(=O)[C@H](C)NC(=O)[C@H](CC(C)C)NC(=O)[C@H](CC(C)C)NC(=O)[C@H](Cc1c[nH]c2ccccc12)NC(=O)[C@H](CC(N)=O)NC(=O)[C@@H](NC(=O)[C@H](Cc1ccccc1)NC(=O)[C@H](CC(=O)O)NC(=O)[C@H](CCC(N)=O)NC(=O)[C@H](CCC(N)=O)NC(=O)[C@H](Cc1c[nH]cn1)NC(=O)[C@@H](NC(=O)[C@H](CCCCN)NC(=O)[C@H](CC(=O)O)NC(=O)[C@H](CCSC)NC(=O)[C@H](C)NC(=O)[C@@H](NC(=O)[C@H](CO)NC(=O)[C@H](Cc1ccc(O)cc1)NC(=O)[C@H](CC(=O)O)NC(=O)[C@H](CO)NC(=O)[C@@H](NC(=O)[C@H](Cc1ccccc1)NC(=O)[C@@H](N)[C@@H](C)O)[C@@H](C)CC)[C@@H](C)CC)[C@@H](C)CC)C(C)C)C(N)=O [AT120, [hGIP(5-30)NH2—C12/30]]
Emax: 0%

CCCCCCCCCCCCCC(=O)NCCCC[C@H](NC(=O)[C@H](CCC(N)=O)NC(=O)[C@H](C)NC(=O)[C@H](CC(C)C)NC(=O)[C@H](CC(C)C)NC(=O)[C@H](Cc1c[nH]c2ccccc12)NC(=O)[C@H](CC(N)=O)NC(=O)[C@@H](NC(=O)[C@H](Cc1ccccc1)NC(=O)[C@H](CC(=O)O)NC(=O)[C@H](CCC(N)=O)NC(=O)[C@H](CCC(N)=O)NC(=O)[C@H](Cc1c[nH]cn1)NC(=O)[C@@H](NC(=O)[C@H](CCCCN)NC(=O)[C@H](CC(=O)O)NC(=O)[C@H](CCSC)NC(=O)[C@H](C)NC(=O)[C@@H](NC(=O)[C@H](CO)NC(=O)[C@H](Cc1ccc(O)cc1)NC(=O)[C@H](CC(=O)O)NC(=O)[C@H](CO)NC(=O)[C@@H](NC(=O)[C@H](Cc1ccccc1)NC(=O)[C@@H](N)[C@@H](C)O)[C@@H](C)CC)[C@@H](C)CC)[C@@H](C)CC)C(C)C)C(N)=O [AT123, [hGIP(5-30)NH2—C14/30]]
Emax: 64%

CCCCCCCCCCCCCCCC(=O)NCCCC[C@H](NC(=O)[C@H](CCC(N)=O)NC(=O)[C@H](C)NC(=O)[C@H](CC(C)C)NC(=O)[C@H](CC(C)C)NC(=O)[C@H](Cc1c[nH]c2ccccc12)NC(=O)[C@H](CC(N)=O)NC(=O)[C@@H](NC(=O)[C@H](Cc1ccccc1)NC(=O)[C@H](CC(=O)O)NC(=O)[C@H](CCC(N)=O)NC(=O)[C@H](CCC(N)=O)NC(=O)[C@H](Cc1c[nH]cn1)NC(=O)[C@@H](NC(=O)[C@H](CCCCN)NC(=O)[C@H](CC(=O)O)NC(=O)[C@H](CCSC)NC(=O)[C@H](C)NC(=O)[C@@H](NC(=O)[C@H](CO)NC(=O)[C@H](Cc1ccc(O)cc1)NC(=O)[C@H](CC(=O)O)NC(=O)[C@H](CO)NC(=O)[C@@H](NC(=O)[C@H](Cc1ccccc1)NC(=O)[C@@H](N)[C@@H](C)O)[C@@H](C)CC)[C@@H](C)CC)[C@@H](C)CC)C(C)C)C(N)=O [AT126, [hGIP(5-30)NH2—C16/30]]
Emax: 75% | EC50: 316 nM

CCCCCCCCCCCC(=O)NCCCC[C@H](NC(=O)[C@H](CCC(N)=O)NC(=O)[C@H](C)NC(=O)[C@H](CC(C)C)NC(=O)[C@H](CC(C)C)NC(=O)[C@H](Cc1c[nH]c2ccccc12)NC(=O)[C@H](CC(N)=O)NC(=O)[C@@H](NC(=O)[C@H](Cc1ccccc1)NC(=O)[C@H](CC(=O)O)NC(=O)[C@H](CCC(N)=O)NC(=O)[C@H](CCC(N)=O)NC(=O)[C@H](C)NC(=O)[C@@H](NC(=O)[C@H](CCCCN)NC(=O)[C@H](CCC(=O)O)NC(=O)[C@H](CCSC)NC(=O)[C@H](C)NC(=O)[C@@H](NC(=O)[C@H](CO)NC(=O)[C@H](Cc1ccc(O)cc1)NC(=O)[C@H](CC(=O)O)NC(=O)[C@H](CO)NC(=O)[C@@H](NC(=O)[C@H](Cc1ccccc1)NC(=O)[C@@H](NC(=O)CNC(=O)[C@@H](N)CCC(=O)O)[C@@H](C)O)[C@@H](C)CC)[C@@H](C)CC)[C@@H](C)CC)C(C)C)C(N)=O [AT130, [hGIP(3-30)NH2[D15E; H18A]-C12/30]] (H-EGTFISDYSIAMEKIAQQDFVNWLLAQK(Lauroyl)-NH2; N-terminus assumed)
Emax: 49%

CCCCCCCCCCCCCCCC(=O)NCCCC[C@H](NC(=O)[C@@H](NC(=O)[C@H](CCCNC(=N)N)NC(=O)[C@H](CC(=O)O)NC(=O)[C@H](CCSC)NC(=O)[C@H](C)NC(=O)[C@@H](NC(=O)[C@H](CO)NC(=O)[C@H](Cc1ccc(O)cc1)NC(=O)[C@H](CC(=O)O)NC(=O)[C@H](CO)NC(=O)[C@@H](NC(=O)[C@H](Cc1ccccc1)NC(=O)[C@@H](NC(=O)CNC(=O)[C@@H](N)CCC(=O)O)[C@@H](C)O)[C@@H](C)CC)[C@@H](C)CC)[C@@H](C)CC)C(=O)N[C@@H](CCC(N)=O)C(=O)N[C@@H](CCC(N)=O)C(=O)N[C@@H](CC(=O)O)C(=O)N[C@@H](Cc1ccccc1)C(=O)N[C@H](C(=O)N[C@@H](CC(N)=O)C(=O)N[C@@H](Cc1c[nH]c2ccccc12)C(=O)N[C@@H](CC(C)C)C(=O)N[C@@H](CC(C)C)C(=O)N[C@@H](C)C(=O)N[C@@H](CCC(N)=O)C(=O)N[C@@H](CCCNC(=N)N)C(N)=O)C(C)C [AT144, [hGIP(3-30)NH2[K16R; H18K; K30R]-C16/18]] (H-EGTFISDYSIAMDRIK(Palmitoyl)QQDFVNWLLAQR-NH2; N-terminus assumed)
Emax: 0%
